Source: US12043625B2, “Pyridine derivatives with c-linked cyclic substituents as cGAS inhibitors” (BOEHRINGER INGELHEIM INTERNATIONAL GMBH, priority 2021, dated 2024)
pIC50: −log10 of the molar value.

Columns and labels:
[1] = tested on: IFN induction in dsDNA-stimulated human whole blood; experiment: Human whole blood assay, dsDNA transfection, IFNα2a production (hWB IC50); type: cell-based;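 note: cGAS pathway activity, IFNα2a in plasma by MSD immunoassay after 22 h at 37 °C, 8 concentrations up to 10 µM in 0.1% DMSO, DMSO controls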
Experimental: For the detection of cellular cGAS activity human whole blood was stimulated by transfection with double stranded DNA. Pathway activity was monitored by measuring the IFNα2α production.
Typically, 8 concentrations were used with the highest concentration at 10 μM in the final assay volume followed by ˜1:5 dilution steps. DMSO concentration was set to 0.1% in the final assay volume. The 96-well assay plate contained 10 test compounds, and DMSO in control wells.
Whole blood was kept at room temperature for a maximum of 3 hours after collection until use in the assay.
160 μl of the whole blood samples was transferred to each well of the 96-well assay plates filled with compound/OptiMEM. All assay plates were prepared as duplicates with blood from different donors. Blood plates were kept at room temperature for 60 minutes and continuous shaking with 450 rpm, covered with the lid, but not sealed.
20 μl OptiMEM and 9.6:1 Fugene was added to all low control wells.
After covering assay plates with aera seals and the lid, blood plates were kept at room temperature for 30 minutes and continuous shaking with 450 rpm, followed by an overnight incubation of 22 h at 37° C. in the incubator, without shaking.
U-Plex MSD GOLD 96-well Small Spot Strepavidin SECTOR Plates (Meso Scale Diagnostics #L45SA-5) were coated with 25 μl diluted capture antibody. Coated plates were incubated for 60 min at room temperature under continuous shaking at 700 rpm. MSD IFNα-2a plates were washed three times with 150 μl wash buffer (1×HBSS, 0.05% Tween).
After blocking the plates with 100 μl block solution/well (1×HBSS with 0.2% Tween, 2% BSA) for 60 min at room temperature and continuous shaking at 700 rpm, plates were emptied as dry as possible by dumping just before continuing with the human plasma.
Whole Blood assay plates were centrifuged at 1600 rpm for 10 minutes. 25 μl of supernatant was transferred with a pipetting robot from each whole blood plate to the corresponding IFNα-2a plate.
Plates were sealed with microplate seals and kept at room temperature again under continuous shaking at 700 rpm for two hours.
Next MSD IFNα-2a plates were washed three times with 150 μl wash buffer (1×HBSS, 0.05% Tween), before adding 25 μl MSD SULFO-TAG IFNα-2a Antibody solution (1:100 diluted in Diluent 3 (Meso Scale Diagnostics #R50AP-2) to each well of the plates.
Afterwards plates were sealed with microplate seals and kept at room temperature again under continuous shaking at 700 rpm for two hours. Finally, MSD IFNα-2α plates were washed three times with 150 μl wash buffer (1×HBSS, 0.05% Tween). 150 μl 2× Read buffer was added to each well and plates were immediately measured with the MSD Sector S600 Reader using the vendor barcode.
For data evaluation and calculation, % control calculation of each well was based on the mean of high (DNA stimulated control) and mean of low (unstimulated control) controls by using the following formula: [counts(sample)−counts(low))/(counts(high)−counts(low))]*100
The IC50 values were calculated using the standard 4 parameter logistic regression formula. Calculation: [y=(a−d)/(1+(x/c)^b)+d], a=low value, d=high value; x=conc M; c=1C50 M; b=slope

Human cGAS = Human cGAS (Homo sapiens (Human), UniProt Q8N884); experiment: Human cGAS enzyme assay (hcGAS IC50, in vitro), cGAMP formation by RapidFire MS; type: biochemical; details: 45 bp dsDNA, GTP/ATP;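 note: compounds preincubated 60 min, then GTP and ATP (30 µM each) added for 90 min at room temperature, cGAMP read relative to cyclic-di-GMP internal standard, no-enzyme/DNA wells as 0%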
[2] = tested on: IFN induction in virus-stimulated THP1 cells; experiment: Human cGAS cell assay, baculovirus-stimulated THP1-Dual cells, Lucia luciferase reporter (THP1(vir) IC50); type: cell-based; details: for pIC50: Homo sapiens, THP-1; for Ratio THP(cGAMP) IC50/THP(vir) IC50: selectivity for cGAS inhibition;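 for all read-outs here: IRF-dependent luminescence, 8 concentrations up to 10 µM in 1% DMSO, 0% = unstimulated cells, 100% = DMSO plus virus, counter assay stimulated with cGAMP downstream of cGAS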
Text: THP1-Dual™ cells (InvivoGen #thpd-nfis) expressing IRF dependent Lucia luciferase reporter were used as basis for both assays. For the detection of cellular cGAS activity cells were stimulated by a baculovirus (pFastbac-1, Invitrogen, no coding insert) infection that delivers the cGAS enzyme stimulating double-stranded DNA (measurement of THP1(vir) IC50).
(§1) For the counter assay, cells were stimulated by cGAMP (SigmaAldrich #SML1232) to activate the identical pathway independent and directly downstream of cGAS (measurement of THP1(cAMP) IC50). Pathway activity was monitored by measuring the Lucia luciferase activity induced by either DNA stimulated cGAS enzyme activity (measurement of THP1^(vir) IC50) or by cGAMP directly (measurement of THP1(cAMP) IC50, counter assay).
Typically, 8 concentrations were used with the highest concentration at 10 μM in the final assay volume followed by ˜1:5 dilution steps. DMSO concentration was set to 1% in the final assay volume. The 384 well assay plate contained 21 test compounds (column 1-22), and DMSO in column 23 and 24.
The baculovirus solution was then added 1:200 (may have varied according to virus batch) to the cells (measurement of THP1(vir) IC50).
(§2) 30 μL of the cell/virus-mix were added to each well of the compound plate from column 1-23 via MultiDrop Combi dispenser (5000 cells/well). In column 24, 30 μl/5000 cells/well without virus were added as a low control.
(§3) The plates were then incubated for 18 h at 37° C. in a humidified incubator.
(§4) Following that, 15 μL of QuantiLuc detection reagent (InvivoGen #rep-qlcg5) were added to each well using a MultiDrop Combi. Measurement was done immediately after the addition using an EnVision reader (US-luminescence read-mode).
Data Evaluation and Calculation:
(§5) For data evaluation and calculation, the measurement of the low control was set as 0% control and the measurement of the high control was set as 100% control. The IC50 values were calculated using the standard 4 parameter logistic regression formula. Calculation: [y=(a−d)/(1+(x/c)^b)+d], a=low value, d=high value; x=conc M; c=1C50 M; b=slope

[3] = tested on: IFN induction in cGAMP-stimulated THP1 cells; experiment: cGAMP stimulated counter cell assay, THP1-Dual cells, Lucia luciferase reporter (THP1(cGAMP) IC50); type: cell-based; details: Homo sapiens, THP-1, THP1-Dual cells stimulated with 10 μM cGAMP;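 note: IRF-driven Lucia luciferase luminescence after 18 h at 37° C, compound series topping at 10 µM with 1% DMSO, unstimulated wells as 0% and DMSO wells as 100%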
Text: 6.2 Method: Human cGAS Cell Assay and cGAMP Stimulated Counter Cell Assay (THP1(vir) IC50 and THP1(cGAMP) IC50)
THP1-Dual™ cells (InvivoGen #thpd-nfis) expressing IRF dependent Lucia luciferase reporter were used as basis for both assays.
as §1
Compounds were delivered in 10 mM DMSO solution, serially diluted and transferred to the 384 well assay plate (Greiner #781201) using an Echo acoustic dispenser. Typically, 8 concentrations were used with the highest concentration at 10 μM in the final assay volume followed by ˜1:5 dilution steps. DMSO concentration was set to 1% in the final assay volume. The 384 well assay plate contained 21 test compounds (column 1-22), and DMSO in column 23 and 24.
as §2, §3, §4
Data Evaluation and Calculation:
as §5

cGAS = details: as disclosed on page 45 of WO 2020/142729; read-out: biochemical (in vitro) IC50-value group; cited from earlier work
[4] = baculovirus-stimulated THP1-Dual cells, 18 h

Human cGAS, sequence (Q8N884 whole entry): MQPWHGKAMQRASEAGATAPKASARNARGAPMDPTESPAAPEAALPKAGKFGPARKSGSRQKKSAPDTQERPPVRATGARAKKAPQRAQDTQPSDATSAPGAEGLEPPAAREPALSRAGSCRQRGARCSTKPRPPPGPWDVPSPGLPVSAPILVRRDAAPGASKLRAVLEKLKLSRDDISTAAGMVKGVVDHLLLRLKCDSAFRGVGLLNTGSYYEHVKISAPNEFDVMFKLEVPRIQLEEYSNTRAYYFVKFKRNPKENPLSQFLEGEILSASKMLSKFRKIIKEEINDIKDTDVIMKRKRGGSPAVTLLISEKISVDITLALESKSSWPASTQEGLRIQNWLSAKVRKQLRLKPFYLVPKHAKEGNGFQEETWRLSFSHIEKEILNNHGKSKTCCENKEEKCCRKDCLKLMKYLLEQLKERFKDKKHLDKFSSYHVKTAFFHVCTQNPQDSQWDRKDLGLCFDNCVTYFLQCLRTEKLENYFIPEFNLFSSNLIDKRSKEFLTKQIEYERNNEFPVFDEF

For `C[C@H]1COCC[C@]1(F)c1cc(-c2cnn(C(F)F)c2)cnc1O[C@H]1C[C@@H](C(=O)O)N(c2nc(C(F)F)nc3c2oc2ccccc23)C1` [Example 6.01, (2S,4S)-4-({5-[1-(Difluoromethyl)-1H-pyrazol-4-yl]-3-[(3S,4R)-4-fluoro-3-methyloxan-4-yl]pyridin-2-yl}oxy)-1-[4-(difluoromethyl)-8-oxa-3,5-diazatricyclo[7.4.0.0^2,7]trideca-1(9),2(7),3,5,10,12-hexaen-6-yl]pyrrolidine-2-carboxylic acid], the pIC50 [1] was 7.09, the pIC50 (Human cGAS) was 8.30 and the pIC50 [2, 4] was 7.46. The “Ratio THP(cGAMP) IC50/THP(vir) IC50” value [2] was >289 and the pIC50 [3] was < 5.00.

`COc1cncc(-c2cnc(O[C@H]3C[C@@H](C(=O)O)N(c4nc(C(F)F)nc5c4oc4ccccc45)C3)c([C@@]3(F)CCOC[C@@H]3C)c2)c1` [Example 6.02] showed a pIC50 [1] of 7.35, a pIC50 (Human cGAS) of 8.22 and a pIC50 [2, 4] of 8.30. For the same compound, the “Ratio THP(cGAMP) IC50/THP(vir) IC50” value [2] was >3212 and the pIC50 [3] was < 4.78.

For `CNc1cccc(-c2cnc(O[C@H]3C[C@@H](C(=O)O)N(c4nc(C(F)F)nc5c4oc4ccccc45)C3)c([C@@]3(F)CCOC[C@@H]3C)c2)c1` [Example 6.03], the pIC50 [1] was 7.42, the pIC50 (Human cGAS) was 8.00 and the pIC50 [2, 4] was 7.46. The “Ratio THP(cGAMP) IC50/THP(vir) IC50” value [2] was 276 and the pIC50 [3] was 5.02.

In the case of `C[C@H]1COCC[C@]1(F)c1cc(-c2cccc(N(C)C)c2)cnc1O[C@H]1C[C@@H](C(=O)O)N(c2nc(C(F)F)nc3c2oc2ccccc23)C1` [Example 6.04], the pIC50 [1] was 7.12, the pIC50 (Human cGAS) was 7.77 and the pIC50 [2, 4] was 7.68. For the same compound, the “Ratio THP(cGAMP) IC50/THP(vir) IC50” value [2] was 371 and the pIC50 [3] was 5.11.

For `Cc1nc(N2C[C@@H](Cc3nn[nH]n3)C[C@H]2C(=O)O)c2oc3ccccc3c2n1` [Example 25, reference compound], the pIC50 [1] was < 5.00, the pIC50 [2] was 4.77 and the pIC50 [2, 4] was < 4.77. For the same compound, the pIC50 [3] was < 4.77 and the pIC50 (cGAS) was > 7.00.

Work on `C#Cc1cnc(O[C@H]2C[C@@H](C(=O)OC)N(c3nc(C(F)(F)F)nc4c3oc3ccccc34)C2)c([C@@]2(F)CCS(=O)(=O)C[C@@H]2C)c1` [Example P01] yielded a pIC50 [1] of 7.17, a pIC50 (Human cGAS) of 4.72 and a pIC50 [2, 4] of 7.96. The pIC50 [3] was < 4.78.

With `COC(=O)[C@@H]1C[C@H](Oc2ncc(Cl)cc2[C@@]2(F)CCS(=O)(=O)C[C@@H]2C)CN1c1nc(C(F)F)nc2c1oc1ccccc12` [Example P02] the pIC50 [1] was 6.85, the pIC50 (Human cGAS) was < 5.00 and the pIC50 [2, 4] was 7.54. For the same compound, the pIC50 [3] was < 4.78.

Compound `COC(=O)[C@@H]1C[C@H](Oc2ncc(Cl)cc2[C@@]2(OC)CC(C)(C)S(=O)(=O)C[C@@H]2C)CN1c1nc(C(F)F)nc2c1oc1ccccc12` [Example P03] has a pIC50 [1] of 5.70, a pIC50 (Human cGAS) of 5.14 and a pIC50 [2, 4] of 6.69. The pIC50 [3] was 4.69.
